Test results as given in patent publication US11123295B2, “Encholeated antifungal compounds for central nervous system delivery and treatment of Cryptococcus infections” (priority 2016, dated 2021).
Several values for one entry are separate records, joined by “and”; a condition that tells them apart may be missing. Equal entries are not always repeated.

Tests used:
Type in all cases: in vivo
[1] = test system: C. neoformans strain H99; test: Trial 2: survival of C. neoformans-infected mice; details: oral 250 mg/kg/day in drinking water
Description: Mice were inoculated with C. neoformans, strain H99/ATCC 208821, (American Type Culture Collection, Rockville, Md.), which was prepared as follows. Cells from a C. neoformans suspension were streaked onto yeast extract peptone dextrose (YPD) agar plates, which were then incubated at 37° C. for 48 hours. A well-separated colony was resuspended in 25 milliliters YPD broth containing chloramphenicol and incubated in a flask on a shaking incubator at 37° C. overnight. The cells were recovered by centrifugation at 4,000 rpm for 5 minutes and washed two times in phosphate-buffered saline (PBS) by resuspension and centrifugation. Challenge organisms were quantified by hemocytometry and were diluted with PBS to a final concentration of 10^5 organisms per milliliter. The viable count was confirmed by serially diluting the C. neoformans suspension and plating the inoculum onto YPD agar plates. […]
Survival and brain studies for each of the three trials were used to determine antifungal efficacy. Mortality was recorded throughout each of the three trials. […] The microbiological response to antifungal treatment was evaluated by concentration (in CFU per gram) of C. neoformans in brain tissue. […] Culture plates were incubated at 37° C. for 48 hours, after which the CFU were counted and the number of CFU per gram of brain tissue was calculated. […] The culture-negative plates were counted as having 0 CFU/g. […]

[2] = test system: C. neoformans strain H99; test: Trial 3: survival of C. neoformans-infected mice
Description: (§1) Animals were dosed once or twice daily as stated in Table 3 following daily body weight measurements. 5 mice were used per treatment group and a group of 5 infected, untreated mice was used as a control. […] Fluconazole, where indicated, was dosed either alone or in combination at 25 mg/kg/day in two doses by oral gavage. Agent administration began 72 hours following infection and continued once daily for 28 consecutive days.
Survival and brain studies for each of the three trials were used to determine antifungal efficacy. Mortality was recorded throughout each of the three trials. The animals were necropsied at death and the brain was removed aseptically, weighed, and homogenized in 1 milliliter sterile water. The microbiological response to antifungal treatment was evaluated by concentration (in CFU per gram) of C. neoformans in brain tissue. Serial dilutions using sterile PBS of homogenized brain were plated in duplicate onto YPD agar plates. Culture plates were incubated at 37° C. for 48 hours, after which the CFU were counted and the number of CFU per gram of brain tissue was calculated. The method was sensitive for detection of >10 CFU/g. The culture-negative plates were counted as having 0 CFU/g.

[3] = test system: C. neoformans strain H99; test: Trial 3: CFU per gram of brain tissue at death; details: PO BID 25 mg/kg/day, individual mice 1-5
Description: as §1
Survival and brain studies for each of the three trials were used to determine antifungal efficacy. Mortality was recorded throughout each of the three trials. The animals were necropsied at death and the brain was removed aseptically, weighed, and homogenized in 1 milliliter sterile water. The microbiological response to antifungal treatment was evaluated by concentration (in CFU per gram) of C. neoformans in brain tissue. Serial dilutions using sterile PBS of homogenized brain were plated in duplicate onto YPD agar plates. Culture plates were incubated at 37° C. for 48 hours, after which the CFU were counted and the number of CFU per gram of brain tissue was calculated. The method was sensitive for detection of >10 CFU/g. The culture-negative plates were counted as having 0 CFU/g. […]

Structure (SMILES)	Median survival [1] [days]	Median survival ([2]; oral 250 mg/kg/day in water) [days]	Median survival ([2]; PO BID 25 mg/kg/day) [days]	Number of CFU/g of Brain [3]
Nc1[nH]c(=O)ncc1F [5-Flucytosine]	34	47		
OC(Cn1cncn1)(Cn1cncn1)c1ccc(F)cc1F [Fluconazole]			53	4,200,000 CFU/g and 4,300,000 CFU/g and 3,900,000 CFU/g and 6,800,000 CFU/g and 11,300,000 CFU/g
